Patent US8859018B2, “Delivery carrier for antimicrobial essential oils” (Nestec S.A., priority 2010, dated 2014)

Columns and labels:
[1] = Un-inoculated control samples of the challenge tests in MOS / MAS; conditions: 0.10%
Description: Challenge Test with moulds was according to the following steps: 1) Add 100 g of MOS into a 250 ml sterile Schott bottle with screw-cap cover; 2) Add 0.1 to 2 ml of mould (A. niger/P. nalgiovence/E. amstelodami) inoculum to meet the target inoculum of 10^2-10^3 cfu/g of MOS into the 100 g MOS and shake to mix well; 3) Pour 35 g of the inoculated MOS into a petri dish. Perform this in duplicate; 4) Pipette 1 g of inoculated MOS from the Schott bottle into 9 ml sterile Tryptone Salt 0.1% diluents and vortex. Perform this in duplicate; 5) Plate 0.1-0.5 ml of inoculated Tryptone Salt 0.1% onto DG18 plates at appropriate dilutions by Spread Plate Method. Incubate the agar plates at 25° C. for 5 days to enumerate the initial mould count; 6) Incubate the inoculated MOS in petri dishes at 30° C. for a week. Monitor for mould growth by visual observation after one week. Perform this mould growth monitoring for a period of 4 weeks; 7) The control was prepared by repeating steps 3 to 6 without using any inoculum. The control was plated onto PCA with Cycloheximide plates.
Challenge Test with yeasts was according to the following steps: 1) Add 100 g of MOS into a 250 ml sterile Schott bottle with screw-cap cover; 2) Add 0.1 ml to 2 ml of yeast (Z. bailii) inoculum to meet the target inoculum of 10^2 to 10^3 cfu/g of MOS into the 100 g MOS and shake to mix well; 3) Pour 35 g of the inoculated MOS into two 150 ml sterile disposable polypropylene container with screw-cap cover; 4) Pipette 1 g of inoculated MOS into 9 ml sterile Tryptone Salt 0.1% diluent and vortex. Perform this in duplicate; 5) Plate 0.1 ml to 0.5 ml of inoculated Tryptone Salt 0.1% onto MEA at appropriate dilutions by Spread Plate Method. Incubate the plates at 30° C. for 3 days for the enumeration of the initial yeast count; 6) Incubate the inoculated MOS in 150 ml containers at 30° C. for a week; 7) After one week, repeat steps 4 to 6 for the weekly monitoring of Z. bailii growth behavior in MOS. Perform the monitoring for a period of 4 weeks; 8) The control was prepared by repeating steps 3 to 7 without using any inoculum.
The method for producing MAS was the same as for the MOS production in experiment 4. The preparation of the microorganism cultures as well as the challenge tests were identical to the ones described in experiment 4 as well.

Eurotium amstelodami = experiment: Challenge test in fresh and aged oyster sauce (Example 3); format: cell-based; conditions: oyster sauce aged 0 to 6 months; KS 0.10 wt %, garlic EO 0.12 wt %; one week to at least 4 weeks after start
Description: (§1) Fresh oyster sauce (OS) tested was the commercial MAGGI Oyster Sauce product from Singapore. The OS was first pasteurized according to standard procedures. After cooling, the samples were divided into 3 groups: A) a negative control group where just 5% of sterilized water was added; B) a positive control group where potassium sorbate (KS) was added to a final concentration of 0.10 wt %; and group C) where a garlic EO acacia gum emulsion (1:1 wt ratio) was added to a final concentration of the EO of 0.12 wt %. Potassium sorbate (E number 202) is widely used as a food preservative and serves here as a positive control. Garlic EO is from Synthite Industries. It was emulsified with acacia gum in the same way as the oregano EO in Example 1.
(§2) The three OS samples were stored (i.e. aged) at 30° C. and ca. 65% relative humidity.
(§3) Microbiological challenge tests were performed directly after preparation of the OS samples, labelled as 0 month, and then after 3 and 6 months of storage, respectively. The challenge tests were performed in the same way as described in Example 1. However, instead of using Saccharomyces cerevisiae as spoilage culture, individual cultures of Aspergillus niger, Penicillium nalgiovense and Eurotium amstelodami were used.

Penicillium nalgiovense = experiment: as above; format: cell-based; conditions: oyster sauce aged 0 to 6 months; KS 0.10 wt %, garlic EO 0.12 wt %; one week to at least 4 weeks after start
Description: as §1, §2, §3

Aspergillus niger = experiment: as above; format: cell-based; conditions: oyster sauce aged 0 to 6 months; KS 0.10 wt %, garlic EO 0.12 wt %; one week to at least 4 weeks after start
Description: as §1, §2, §3

[2] = MAGGI Abalone Sauce, age 0 month
[3] = MAGGI Abalone Sauce, age 1 month
[4] = MAGGI Abalone Sauce, age 3 month
[5] = MAGGI Abalone Sauce, age 6 month
[6] = MAGGI Abalone Sauce, age 10 month
[7] = MAGGI Abalone Sauce, age 12 month
[8] = MAGGI Oyster Sauce, age 0 month

C/C=C/C=C/C(=O)[O-].[K+] [KS, potassium sorbate]
Week 0 (Log cfu/g) [1, 2]: <1.00 Log cfu/g
Week 1 (Log cfu/g) [1, 2]: <1.00 Log cfu/g
Week 2 (Log cfu/g) [1, 2]: <1.00 Log cfu/g
Week 3 (Log cfu/g) [1, 2]: <1.00 Log cfu/g
Week 4 (Log cfu/g) [1, 2]: <1.00 Log cfu/g
Week 0 (Log cfu/g) [1, 3]: <1.00 Log cfu/g
Week 1 (Log cfu/g) [1, 3]: <1.00 Log cfu/g
Week 2 (Log cfu/g) [1, 3]: <1.00 Log cfu/g
Week 3 (Log cfu/g) [1, 3]: <1.00 Log cfu/g
Week 4 (Log cfu/g) [1, 3]: <1.00 Log cfu/g
Week 0 (Log cfu/g) [1, 4]: <1.00 Log cfu/g
Week 1 (Log cfu/g) [1, 4]: <1.00 Log cfu/g
Week 2 (Log cfu/g) [1, 4]: <1.00 Log cfu/g
Week 3 (Log cfu/g) [1, 4]: <1.00 Log cfu/g
Week 4 (Log cfu/g) [1, 4]: <1.00 Log cfu/g
Week 0 (Log cfu/g) [1, 5]: <1.00 Log cfu/g
Week 1 (Log cfu/g) [1, 5]: <1.00 Log cfu/g
Week 2 (Log cfu/g) [1, 5]: <1.00 Log cfu/g
Week 3 (Log cfu/g) [1, 5]: <1.00 Log cfu/g
Week 4 (Log cfu/g) [1, 5]: <1.00 Log cfu/g
Week 0 (Log cfu/g) [1, 6]: <1.00 Log cfu/g
Week 1 (Log cfu/g) [1, 6]: <1.00 Log cfu/g
Week 2 (Log cfu/g) [1, 6]: <1.00 Log cfu/g
Week 3 (Log cfu/g) [1, 6]: <1.00 Log cfu/g
Week 4 (Log cfu/g) [1, 6]: <1.00 Log cfu/g
Week 0 (Log cfu/g) [1, 7]: <1.00 Log cfu/g
Week 1 (Log cfu/g) [1, 7]: <1.30 Log cfu/g
Week 2 (Log cfu/g) [1, 7]: <1.30 Log cfu/g
Week 3 (Log cfu/g) [1, 7]: <1.30 Log cfu/g
Week 4 (Log cfu/g) [1, 7]: <1.30 Log cfu/g
Week 0 (Log cfu/g) [1, 8]: <1.30 Log cfu/g
Week 1 (Log cfu/g) [1, 8]: <1.30 Log cfu/g
Week 2 (Log cfu/g) [1, 8]: <1.30 Log cfu/g
Week 3 (Log cfu/g) [1, 8]: <1.30 Log cfu/g
Week 4 (Log cfu/g) [1, 8]: <1.30 Log cfu/g
growth of the mould strain (Eurotium amstelodami): no detectable growth
growth of the mould strain (Penicillium nalgiovense): no detectable growth
growth of the mould strain (Aspergillus niger): no detectable growth
